One assay addresses T1, progesterone receptor (Oryctolagus cuniculus, UniProt P06186).
T1 construct: in the cytosol obtained from estrogen-primedimmature rabbit uterus; from tissue; host or cells: uterine cytosol of estrogen-primed immature female rabbits
T1 sequence (P06186 1-930): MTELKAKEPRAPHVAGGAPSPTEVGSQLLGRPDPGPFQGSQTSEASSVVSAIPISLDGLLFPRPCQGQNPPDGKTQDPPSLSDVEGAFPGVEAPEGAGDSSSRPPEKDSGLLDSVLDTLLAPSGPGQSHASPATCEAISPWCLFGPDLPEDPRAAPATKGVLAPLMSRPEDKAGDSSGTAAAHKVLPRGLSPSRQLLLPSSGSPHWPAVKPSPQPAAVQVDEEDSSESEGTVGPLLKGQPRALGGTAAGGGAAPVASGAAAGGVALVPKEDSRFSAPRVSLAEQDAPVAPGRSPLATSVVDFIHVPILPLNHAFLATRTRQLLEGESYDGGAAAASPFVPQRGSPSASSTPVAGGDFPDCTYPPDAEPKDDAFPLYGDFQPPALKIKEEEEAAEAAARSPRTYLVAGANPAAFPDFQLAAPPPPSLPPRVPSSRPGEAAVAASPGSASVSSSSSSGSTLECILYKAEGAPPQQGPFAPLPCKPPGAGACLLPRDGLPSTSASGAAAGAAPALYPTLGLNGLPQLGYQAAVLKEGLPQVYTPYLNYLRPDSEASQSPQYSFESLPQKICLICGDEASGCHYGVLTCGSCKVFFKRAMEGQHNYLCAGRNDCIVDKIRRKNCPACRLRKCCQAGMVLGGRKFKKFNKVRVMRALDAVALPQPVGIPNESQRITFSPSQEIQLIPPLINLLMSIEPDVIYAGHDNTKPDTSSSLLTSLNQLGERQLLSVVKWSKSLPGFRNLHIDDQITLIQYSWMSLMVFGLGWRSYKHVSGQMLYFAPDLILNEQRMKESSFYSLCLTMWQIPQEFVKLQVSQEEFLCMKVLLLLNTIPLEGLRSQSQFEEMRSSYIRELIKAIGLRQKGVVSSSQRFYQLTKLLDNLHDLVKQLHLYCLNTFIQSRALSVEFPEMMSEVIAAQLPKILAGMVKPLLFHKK
Put plainly: Relative binding affinity to progesterone receptor in uterine cytosol (displacement of tritium-labeled progesterone). Further details: species or system rabbit (estrogen-primed immature female). As to conditions: for P-RBA/G-RBA: ratio of RBA values for progesterone receptor to glucocorticoid receptor; for Progestin RBA: relative to progesterone (=100), rabbit uterine cytosol. On the procedure:
(§1) The in vitro activity of the subject compounds was determined by measuring the binding affinities (RBA) of these compounds relative to progesterone for the progesterone receptor in the cytosol obtained from estrogen-primedimmature rabbit uterus and by measuring the RBA relative to dexamethasone for the glucocorticoid receptor from thymus of adrenalectomized rats. These assays were carried out by the procedures of J. R. Reel et al., Fertility and Sterility, 31, 552 (1979) (progesterone) and G. P. Chrousos et al., Endocrinology, 107, 472 (1980) (glucocorticoid).
^a Relative ability to displace tritiumlabeled progesterone from the
receptor in uterine cytosol from estrogenprimed immature female rabbits a
compared with progesterone (=100).

In another assay the target is T2, glucocorticoid receptor (Rattus norvegicus, UniProt P06536).
T2 construct: glucocorticoid receptor from thymus of adrenalectomized rats; from tissue; host or cells: thymus of adrenalectomized rats
T2 sequence (P06536 1-795): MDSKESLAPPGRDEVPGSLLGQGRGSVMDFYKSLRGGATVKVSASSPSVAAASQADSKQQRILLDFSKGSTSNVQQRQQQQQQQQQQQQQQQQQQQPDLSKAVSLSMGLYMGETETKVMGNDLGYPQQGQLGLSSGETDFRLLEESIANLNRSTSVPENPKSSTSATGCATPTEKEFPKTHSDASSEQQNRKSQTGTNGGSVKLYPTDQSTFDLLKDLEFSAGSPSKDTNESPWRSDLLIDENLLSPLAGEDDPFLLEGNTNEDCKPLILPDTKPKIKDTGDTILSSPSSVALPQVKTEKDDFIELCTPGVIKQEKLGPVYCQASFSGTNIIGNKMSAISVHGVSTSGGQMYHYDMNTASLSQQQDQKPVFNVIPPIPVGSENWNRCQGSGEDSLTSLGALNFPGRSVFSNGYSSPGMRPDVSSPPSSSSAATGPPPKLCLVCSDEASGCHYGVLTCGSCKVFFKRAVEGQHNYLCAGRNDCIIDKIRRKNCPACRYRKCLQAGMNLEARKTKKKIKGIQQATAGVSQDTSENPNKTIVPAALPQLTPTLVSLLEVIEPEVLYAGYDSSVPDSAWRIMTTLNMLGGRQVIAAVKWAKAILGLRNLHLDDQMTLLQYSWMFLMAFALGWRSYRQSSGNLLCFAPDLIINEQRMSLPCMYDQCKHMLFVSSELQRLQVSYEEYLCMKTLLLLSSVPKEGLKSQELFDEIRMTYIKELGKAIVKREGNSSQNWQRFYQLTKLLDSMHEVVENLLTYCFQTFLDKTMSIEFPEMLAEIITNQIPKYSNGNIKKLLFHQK
Put plainly: Relative binding affinity to glucocorticoid receptor of thymus (displacement of tritium-labeled dexamethasone). As to conditions: relative to dexamethasone (=100). On the set-up: species or system rat (adrenalectomized). Here is the method: as §1
^b Relative ability to displace tritiumlabeled dexamethasone from the
receptor of the thymus of adrenalectomized rats as compared to […]

Assay [1] relates to endometrial response due to subcutaneous administration of progesterone. Put plainly: Anti-McGinty intrauterine antiprogestational test. The class given is in vivo, estrogen-primed immature female rabbits. As to conditions: intrauterine; for ED50 / ED90 (calculated): from % Inhib = a + b · ln dose. On the procedure:
The antiprogestational activity of the compounds was studied after both intrauterine and oral administration. In each case the compound was tested for its ability to inhibit the endometrial response due to subcutaneous administration of progesterone to estrogen-primed immature female rabbits. The methodology used for the intrauterine test has been described by D. A. McGinty et al. See Endocrinology, 24, 829 (1939). For oral administration of test compounds, the method used was analogous to that of Clauberg. See Clauberg, Zentr. Gynakol., 54, 2757 (1930) as modified by McPhail J. Physiol. (London), 83, 145 (1935). Each active compound was characterized by a dose-related ability to block the progestational effect of simultaneously administered progesterone. When the percent inhibition was plotted versus the log of the dose, linear relationships were obtained. Linear regression analysis permitted calculation of the ED50 and ED90 values (the doses required for 50% and 90% inhibition of the progesterone effect, respectively). The actual dose which gave 90% or more inhibition is also given, although this value is probably less accurate than the calculated values which are based on the dose-response line. […] Since the intrauterine administration bypasses most of the drug-metabolizing systems of the body, especially the liver, intrinsic activity is expected to correlate reasonably well with binding activity to the receptor, according to currently held hypotheses regarding receptor binding.

For assay [2] the test system is unchanged. Put plainly: Oral antiprogestational activity (Anti-Clauberg). It is filed as in vivo, estrogen-primed immature female rabbits. As to conditions: total SC progesterone 0.8 mg; for % Inhibition: based on change in McPhail Index; for McPhail Index: scale 0-4; for Wt of Uterus: ± SD. On the procedure:
The antiprogestational activity of the compounds was studied after both intrauterine and oral administration. In each case the compound was tested for its ability to inhibit the endometrial response due to subcutaneous administration of progesterone to estrogen-primed immature female rabbits. The methodology used for the intrauterine test has been described by D. A. McGinty et al. See Endocrinology, 24, 829 (1939). For oral administration of test compounds, the method used was analogous to that of Clauberg. See Clauberg, Zentr. Gynakol., 54, 2757 (1930) as modified by McPhail J. Physiol. (London), 83, 145 (1935).

Assay [3] relates to endometrial proliferation (McPhail Index). Put plainly: Progestational activity, intrauterine (McGinty assay). It is filed as in vivo, estrogen-primed immature female rabbits. As to conditions: right horn control 0. Here is the method:
In this assay estrogen-primed immature female rabbits are treated by injection of the test compound into the left horn of the uterus while the right horn is left untreated as a control. Each horn is then scored for endometrial proliferation by the McPhail Index. […] It indicates a possible need for reassessment of the current hypotheses regarding the effect of this substituent on antagonist versus agonist activity.

The next assay has as its system Cushing's syndrome. To be noted: cited from earlier work.
The test system of assay [4] is estrogen-insensitive T47Dco human breast cancer cells. To be noted: Horwitz 1985; cited from earlier work.
The conditions of assay [5]: comparison of mefipristone, ZK 98.299 (II), ZK 98.734 (III); cited from earlier work.
[6] abbreviates: footnote c: no inhibition at tested dose.
Setting [7] is: results variable, data from "best run".

Structures are written as SMILES.

The % Inhibition is the change of the read-out against control, counted positive when it falls. Low values mean little suppression, high ones strong suppression.

With `CC(=O)O[C@]1(C(C)=O)CC[C@H]2[C@@H]3C[C@H](C)C4=CC(=O)CCC4=C3[C@@H](c3ccc(N(C)C)cc3)C[C@@]21C` [Compound 8b, 6α-methyl-17α-acetoxy-11β-(4-N,N-dimethylaminophenyl)-19-norpregna-4,9-diene-3,20-dione], at progesterone receptor, the P-RBA/G-RBA stood at 0.18 and the “Progestin RBA” value worked out at 43. Also, on glucocorticoid receptor, the “Glucocort. RBA” value is recorded as 242. In addition, the “ED90 (actual dose)” value in assay [1] (actual dose giving ≥ 90% inhibition) was 2.0 µg. In addition, in assay [1], the ED50 was found to be 0.54 µg and the “ED90 (calculated)” value is 1.9 µg. Also, in assay [2] (total oral dose 1.0 mg, N=6), the “% Inhibition” value came out at 12.7 ± 3.0%, the “McPhail Index” value is given as 3.46 ± 0.12 and the “Wt of Uterus” value was 3.26 ± 0.34 g. In assay [2] (total oral dose 5.0 mg, N=6), the “% Inhibition” value was 51.6 ± 12.2%, the “McPhail Index” value was 1.92 ± 0.48 and the “Wt of Uterus” value is 2.14 ± 0.22 g. In addition, in assay [2] (total oral dose 10.0 mg, N=5), the “% Inhibition” value is given as 67.2 ± 6.1%, the “McPhail Index” value came to 1.30 ± 0.24 and the “Wt of Uterus” value amounted to 2.24 ± 0.27 g.

In the case of `CC[C@@H]1C[C@H]2[C@@H]3C[C@H](C)C4=CC(=O)CCC4=C3[C@@H](c3ccc(N(C)C)cc3)C[C@]2(C)[C@H]1C(C)=O` [Compound 15a, 6α-Methyl-16α-ethyl-11β-(4-N,N-dimethylaminophenyl)-19-norpregna-4,9-diene-3,20-dione], the P-RBA/G-RBA on progesterone receptor is recorded as 0.42. Moreover, the “Progestin RBA” value on progesterone receptor was 61. In addition, the “Glucocort. RBA” value at glucocorticoid receptor is listed as 246. Further, the “ED90 (actual dose)” value in assay [1] (setting [6]) was below 10 µg. Further, the “McPhail Index, Left Horn (Treated)” value came out at 3.8 ± 0.12 in assay [3] (dose 20.0 μg intrauterine), 3.9 ± 0.12 in assay [3] (dose 40.0 μg intrauterine) and 3.8 ± 0.12 in assay [3] (dose 80.0 μg intrauterine).

With `CC[C@@H]1C[C@H]2[C@@H]3CCC4=CC(=O)CCC4=C3[C@@H](c3ccc(N(C)C)cc3)C[C@]2(C)[C@H]1C(C)=O` [Compound 19, 16α-Ethyl-118-(4-N,N-dimethylaminophenyl)-19-norpregna-4,9-diene-3,20-dione], the P-RBA/G-RBA at progesterone receptor is 0.65. Moreover, on progesterone receptor, the “Progestin RBA” value is given as 80. Moreover, the “Glucocort. RBA” value at glucocorticoid receptor was 124. The “ED90 (actual dose)” value in assay [1] (setting [6]) is below 80 µg. Moreover, the “McPhail Index, Left Horn (Treated)” value in assay [3] (dose 2.0 μg intrauterine) is reported as 3.0 ± 0.32; in assay [3] (dose 4.0 μg intrauterine), 3.7 ± 0.12; in assay [3] (dose 8.0 μg intrauterine), 3.6 ± 0.10.

Take `CC#C[C@]1(O)CC[C@H]2[C@@H]3CCC4=CC(=O)CCC4=C3[C@@H](c3ccc(N(C)C)cc3)C[C@@]21C` [RU-486, reference compound]: the “ED90 (actual dose)” value in assay [1] (actual dose giving ≥ 90% inhibition, results variable, data from "best run") worked out at 1.0 µg. Further, in assay [1] (setting [7]), the ED50 came to 0.28 µg and the “ED90 (calculated)” value was 0.87 µg. Besides, the “treatment of Cushing's syndrome” value in the assay on Cushing's syndrome (Nieman et al) is given as “successfully used”. In the assay with Cushing's syndrome (in vivo), the antiglucocorticoid activity entry is recorded as “very significant antiglucocorticoid activity”. In assay [4], the growth-inhibitory properties entry was “exhibits growth-inhibitory properties”.

Regarding `CN(C)c1ccc(C2CC3(C)C(CCC3(O)CCCO)C3CCC4=CC(=O)CCC4=C23)cc1` (stereo not shown) [ZK 98.299], the “antiglucocorticoid activity relative to antigestagenic potency (rank)” value in assay [5] was “intermediate position”.

For `CN(C)c1ccc([C@H]2C[C@@]3(C)[C@@H](CC[C@@]3(O)/C=C\CO)[C@@H]3CCC4=CC(=O)CCC4=C32)cc1` [ZK 98.734], the “antiglucocorticoid activity relative to antigestagenic potency (rank)” value in assay [5] is “least active”.

Source of the values: US4954490A, “11 β-substituted progesterone analogs” (Research Triangle Institute, priority 1988, dated 1990).
